Assay results published in patent US12466813B2, “PRC1 inhibitors and methods of treatment therewith” (The Regents of the University of Michigan, priority 2018, dated 2025).
Entries after “also recorded” stand apart in the source; their conditions may differ. Values belong to the compound of their own block, whether it stands above or below them.

Key:
[1] = biological target: T1, RING1B-BMI1 (Homo sapiens, UniProt Q99496); experiment: ITC binding of COMPOUND 1 to RING1B-BMI1
T1 sequence (Q99496 1-336): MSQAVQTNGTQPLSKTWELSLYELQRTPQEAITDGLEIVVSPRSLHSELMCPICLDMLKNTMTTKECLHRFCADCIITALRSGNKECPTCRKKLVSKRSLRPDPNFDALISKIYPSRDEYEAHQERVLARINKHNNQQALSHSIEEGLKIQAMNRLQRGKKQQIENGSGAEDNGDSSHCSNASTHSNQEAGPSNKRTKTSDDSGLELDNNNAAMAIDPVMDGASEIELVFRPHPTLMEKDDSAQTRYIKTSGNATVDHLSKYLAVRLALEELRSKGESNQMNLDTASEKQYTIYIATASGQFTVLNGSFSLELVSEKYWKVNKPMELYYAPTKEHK
T1 sequence (P35226 1-326 partner): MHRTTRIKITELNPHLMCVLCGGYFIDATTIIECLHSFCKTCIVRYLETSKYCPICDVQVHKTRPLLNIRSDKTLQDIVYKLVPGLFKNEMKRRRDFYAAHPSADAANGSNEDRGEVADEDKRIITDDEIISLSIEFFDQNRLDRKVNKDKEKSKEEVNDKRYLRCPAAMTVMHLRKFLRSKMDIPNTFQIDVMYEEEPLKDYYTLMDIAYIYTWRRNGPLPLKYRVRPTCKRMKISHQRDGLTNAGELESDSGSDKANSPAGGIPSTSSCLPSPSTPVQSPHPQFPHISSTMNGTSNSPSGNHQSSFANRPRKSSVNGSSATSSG
Experimental: FIG. 1. […] A. structure of COMPOUND 1. B. ITC experiments showing the binding of COMPOUND 1 to RING1B-BMI1. C. Assigned NMR spectrum of RING1B-BMI1 with DMSO and COMPOUND 1 in 1-2 molar ratio.
(§1) Experiments were conducted during development of embodiments herein to develop small molecule inhibitors of PRC1 by targeting the Ring1B-BMI1 E3 ligase. These compounds bind directly to Ring1B-Bmi1 with low-micromolar affinity and inhibit PRC1 in vitro and in cells. […] Experiments were conducted during development of embodiments herein to test COMPOUND 1 in leukemia stem cell models represented by TEX cells (Ref. 22; herein incorporated by reference in its entirety) and M9-ENL1 cells (Ref. 23; herein incorporated by reference in its entirety). […] In some embodiments, COMPOUND 1 and COMPOUND 1 analogs are find use as agents in targeting leukemia and other cancer stem cells.

[2] = biological target: T1, RING1B-BMI1; experiment: KD classes of Table A (direct binding to Ring1B-Bmi1); details: class given in Table A
[3] = biological target: T1, RING1B-BMI1; experiment: RING1B-BMI1 E3 ligase (H2Aub) activity in vitro; format: biochemical
Experimental: (§2) FIG. 2. COMPOUND 1 inhibits PRC1 in vitro. […] C.
as §1

[4] = biological target: T2, RING1B-PCGF1 (Homo sapiens, UniProt Q99496); experiment: RING1B-PCGF1 E3 ligase activity in vitro; format: biochemical; details: FIG. 2B
T2 sequence (Q99496 1-336): T1 sequence (Q99496 1-336)
T2 sequence (Q9BSM1 1-259 partner): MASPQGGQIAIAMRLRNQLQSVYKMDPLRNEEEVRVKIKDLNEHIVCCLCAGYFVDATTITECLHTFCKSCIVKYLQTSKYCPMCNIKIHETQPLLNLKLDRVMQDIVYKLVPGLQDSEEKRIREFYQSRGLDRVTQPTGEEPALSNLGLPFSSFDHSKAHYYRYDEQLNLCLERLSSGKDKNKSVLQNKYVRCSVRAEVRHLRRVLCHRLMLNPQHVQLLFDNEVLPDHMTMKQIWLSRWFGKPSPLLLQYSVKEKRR
Text: as §2

[5] = biological target: BRCA1-BARD1 (Homo sapiens, UniProt P38398+Q99728); experiment: BRCA1-BARD1 E3 ligase selectivity; format: biochemical; details: FIG. 2
Experimental: as §2, §1

[6] = biological target: T3, TRIM37 (Homo sapiens, UniProt O94972); experiment: TRIM37 E3 ligase selectivity; format: biochemical; details: FIG. 2
T3 sequence (O94972 1-964): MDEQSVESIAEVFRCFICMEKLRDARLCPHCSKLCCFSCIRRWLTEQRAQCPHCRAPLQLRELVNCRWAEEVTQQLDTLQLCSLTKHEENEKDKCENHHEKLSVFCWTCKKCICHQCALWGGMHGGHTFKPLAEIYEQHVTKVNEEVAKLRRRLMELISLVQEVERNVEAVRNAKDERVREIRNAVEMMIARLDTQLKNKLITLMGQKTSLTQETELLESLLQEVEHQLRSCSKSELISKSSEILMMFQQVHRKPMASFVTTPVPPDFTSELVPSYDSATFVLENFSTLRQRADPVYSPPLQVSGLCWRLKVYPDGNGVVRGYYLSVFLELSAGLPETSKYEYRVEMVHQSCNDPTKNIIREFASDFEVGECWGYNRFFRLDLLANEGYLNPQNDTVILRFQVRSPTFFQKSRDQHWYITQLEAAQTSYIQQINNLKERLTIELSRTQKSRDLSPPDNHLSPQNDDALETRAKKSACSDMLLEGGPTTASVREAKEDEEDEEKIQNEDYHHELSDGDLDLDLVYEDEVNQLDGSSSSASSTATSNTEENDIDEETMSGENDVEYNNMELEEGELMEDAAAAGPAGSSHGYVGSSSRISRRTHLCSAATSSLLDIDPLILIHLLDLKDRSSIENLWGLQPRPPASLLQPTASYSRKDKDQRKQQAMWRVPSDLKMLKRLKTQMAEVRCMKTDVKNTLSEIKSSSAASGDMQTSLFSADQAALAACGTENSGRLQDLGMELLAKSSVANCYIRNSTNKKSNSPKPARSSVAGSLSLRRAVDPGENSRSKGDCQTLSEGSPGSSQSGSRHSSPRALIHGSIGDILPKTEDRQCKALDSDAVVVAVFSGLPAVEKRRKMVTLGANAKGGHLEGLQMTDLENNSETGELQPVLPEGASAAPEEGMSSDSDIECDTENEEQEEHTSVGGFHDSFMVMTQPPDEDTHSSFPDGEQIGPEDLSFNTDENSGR
Experimental: as §2, §1

[7] = biological target: T4, RING1B-BMI1 interaction with nucleosome (Homo sapiens, UniProt Q99496); experiment: EMSA assay, RING1B-BMI1 interaction with nucleosome; format: binding; details: FIG. 2D
T4 sequence (Q99496 1-336): T1 sequence (Q99496 1-336)
T4 sequence (P35226 1-326 partner): T1 sequence (P35226 1-326 partner)
Text: as §2

[8] = tested on: PRC1 complex in leukemia K562 cells; experiment: H2Aub level / PRC1 activity in K562 cells; format: cell-based; details: FIG. 3
Experimental: FIG. 3. COMPOUND 1 inhibits PRC1 in K562 cells. Knockdown of BMI1 and RING1B in K562 cells results in decrease in H2Aub.
as §1

[9] = tested on: H2Aub in TEX cells; experiment: H2Aub, RNA-seq and ChIP-seq in TEX cells; format: cell-based; details: FIG. 4
Experimental: (§3) FIGS. 4A-F. COMPOUND 1 inhibits PRC1 in TEX cells. FIG. 4A. Inhibition of H2Aub in TEX cells. FIG. 4B. Differentiation of TEX cells upon treatment with COMPOUND 1. […] FIG. 4C. GSEA analysis of TEX cells showing revers of stem cell signature. FIG. 4D. […] FIG. 4E. Gene expression changes upon treatment with COMPOUND 1. FIG. 4F.
as §1

[10] = tested on: TEX cells; experiment: Differentiation and CD34 marker of TEX cells; format: cell-based; details: FIG. 4
Experimental: as §3, §1

[11] = tested on: M9-ENL1 cells; experiment: Colony formation of M9-ENL1 cells; format: cell-based; details: FIG. 5
Experimental: as §1

[12] = tested on: M9-ENL1 cells; experiment: Transplantation of treated M9-ENL1 cells into mice; format: in vivo; details: then transplanted into mice, FIG. 5
Experimental: as §1

[13] = tested on: primary AML samples; experiment: Primary AML samples: H2Aub, colony formation, CD34; format: cell-based; details: FIG. 6

Chain of BRCA1-BARD1 (P38398 whole entry): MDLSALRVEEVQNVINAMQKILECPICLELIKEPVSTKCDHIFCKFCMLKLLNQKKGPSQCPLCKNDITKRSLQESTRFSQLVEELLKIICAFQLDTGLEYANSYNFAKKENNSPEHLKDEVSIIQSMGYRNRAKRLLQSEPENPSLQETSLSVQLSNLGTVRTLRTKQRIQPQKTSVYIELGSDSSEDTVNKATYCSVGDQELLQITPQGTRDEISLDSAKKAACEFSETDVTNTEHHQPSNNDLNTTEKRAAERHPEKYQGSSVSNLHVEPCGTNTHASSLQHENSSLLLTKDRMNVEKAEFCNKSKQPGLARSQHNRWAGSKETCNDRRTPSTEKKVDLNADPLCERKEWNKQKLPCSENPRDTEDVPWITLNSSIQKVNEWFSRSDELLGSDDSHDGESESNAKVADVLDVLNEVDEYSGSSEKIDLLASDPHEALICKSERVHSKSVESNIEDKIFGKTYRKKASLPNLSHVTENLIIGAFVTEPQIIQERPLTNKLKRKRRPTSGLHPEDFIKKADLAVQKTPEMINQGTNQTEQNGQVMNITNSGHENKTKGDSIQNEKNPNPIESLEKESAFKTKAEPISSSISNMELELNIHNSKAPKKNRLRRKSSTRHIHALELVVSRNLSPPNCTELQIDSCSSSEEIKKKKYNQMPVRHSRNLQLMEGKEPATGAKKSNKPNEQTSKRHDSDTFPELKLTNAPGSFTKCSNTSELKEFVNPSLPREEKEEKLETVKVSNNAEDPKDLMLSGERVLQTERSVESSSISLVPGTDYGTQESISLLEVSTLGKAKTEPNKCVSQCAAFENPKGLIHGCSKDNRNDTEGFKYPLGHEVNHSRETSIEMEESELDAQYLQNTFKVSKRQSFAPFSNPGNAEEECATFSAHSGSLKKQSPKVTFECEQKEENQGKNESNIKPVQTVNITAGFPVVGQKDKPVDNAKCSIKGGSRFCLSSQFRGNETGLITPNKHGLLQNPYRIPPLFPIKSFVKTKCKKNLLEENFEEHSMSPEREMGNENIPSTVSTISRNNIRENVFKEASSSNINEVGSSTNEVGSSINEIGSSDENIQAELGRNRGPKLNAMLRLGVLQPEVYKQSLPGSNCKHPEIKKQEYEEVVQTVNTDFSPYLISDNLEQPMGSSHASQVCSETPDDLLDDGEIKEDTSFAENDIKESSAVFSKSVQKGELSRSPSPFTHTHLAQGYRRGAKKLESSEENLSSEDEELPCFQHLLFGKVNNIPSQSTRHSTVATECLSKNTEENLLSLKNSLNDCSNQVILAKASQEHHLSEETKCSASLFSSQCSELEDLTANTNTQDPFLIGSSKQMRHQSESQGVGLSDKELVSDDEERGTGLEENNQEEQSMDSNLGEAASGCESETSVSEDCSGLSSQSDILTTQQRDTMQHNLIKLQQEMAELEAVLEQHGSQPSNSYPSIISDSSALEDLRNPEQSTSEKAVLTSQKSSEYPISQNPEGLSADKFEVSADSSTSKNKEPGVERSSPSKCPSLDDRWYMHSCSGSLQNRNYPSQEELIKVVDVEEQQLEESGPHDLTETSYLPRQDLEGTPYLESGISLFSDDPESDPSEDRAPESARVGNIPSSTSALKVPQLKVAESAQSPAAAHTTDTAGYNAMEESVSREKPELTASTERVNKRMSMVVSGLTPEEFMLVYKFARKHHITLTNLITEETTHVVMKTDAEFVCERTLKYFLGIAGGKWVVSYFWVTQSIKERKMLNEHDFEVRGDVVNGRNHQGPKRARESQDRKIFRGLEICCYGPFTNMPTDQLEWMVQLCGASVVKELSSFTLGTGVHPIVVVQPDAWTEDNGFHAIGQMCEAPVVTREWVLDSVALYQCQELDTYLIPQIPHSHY
Chain of BRCA1-BARD1 (Q99728 whole entry): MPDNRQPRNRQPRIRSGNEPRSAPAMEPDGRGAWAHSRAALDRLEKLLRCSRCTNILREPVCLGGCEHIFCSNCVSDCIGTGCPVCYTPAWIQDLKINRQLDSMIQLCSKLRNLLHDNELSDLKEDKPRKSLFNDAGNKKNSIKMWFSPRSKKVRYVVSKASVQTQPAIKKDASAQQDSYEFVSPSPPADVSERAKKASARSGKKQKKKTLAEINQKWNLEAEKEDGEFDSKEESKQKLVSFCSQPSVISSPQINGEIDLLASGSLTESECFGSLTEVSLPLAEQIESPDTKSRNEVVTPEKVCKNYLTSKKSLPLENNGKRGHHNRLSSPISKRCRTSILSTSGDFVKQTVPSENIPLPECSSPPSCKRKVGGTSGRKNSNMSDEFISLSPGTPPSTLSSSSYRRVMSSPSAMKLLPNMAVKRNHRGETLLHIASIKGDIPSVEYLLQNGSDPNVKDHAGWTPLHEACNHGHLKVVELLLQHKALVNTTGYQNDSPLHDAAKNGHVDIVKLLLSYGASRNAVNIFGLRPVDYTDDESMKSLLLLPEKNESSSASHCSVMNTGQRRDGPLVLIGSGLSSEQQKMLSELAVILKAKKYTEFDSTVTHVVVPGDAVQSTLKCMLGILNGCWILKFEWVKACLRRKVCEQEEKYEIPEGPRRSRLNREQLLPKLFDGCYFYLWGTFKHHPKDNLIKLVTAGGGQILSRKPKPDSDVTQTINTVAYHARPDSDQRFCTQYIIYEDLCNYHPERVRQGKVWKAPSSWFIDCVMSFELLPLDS

Compound: CC(C)c1c(-c2cccc3[nH]ccc23)[nH]c(C(=O)O)c1-c1c(Cl)ccc2[nH]ccc12 [COMPOUND 1, 3-(5-Chloro-1H-indol-4-yl)-5-(1H-indol-4-yl)-4-isopropyl-1H-pyrrole-2-carboxylic acid]
binding to RING1B-BMI1 ([1]; ITC and NMR, FIG. 1): binds to RING1B-BMI1
Kd ([1]; binds directly to Ring1B-Bmi1, FIG. 1): 2.6 µM
Kd [2]: < 20 µM
IC50 ([3]; FIG. 2): ~2 µM
RING1B-BMI1 H2Aub activity ([3]; in vitro, FIG. 2A): inhibits RING1B-BMI1 H2Aub activity
RING1B-PCGF1 activity [4]: inhibits RING1B-PCGF1 activity
inhibition of BRCA1-BARD1 E3 ligase [5]: does not inhibit
inhibition of TRIM37 E3 ligase [6]: does not inhibit
RING1B-BMI1 interaction with nucleosome [7]: inhibits RINIG1B-BMI1 interaction with nucleosome
PRC1 activity / H2Aub level in K562 cells [8]: blocks the activity of PRC1 complex; also recorded: decreases H2Aub level
H2Aub in TEX cells [9]: inhibits H2Aub
global H2Aub (ChIP-seq) [9]: global decrease in H2Aub
leukemia stem cell signature (RNA-seq) [9]: reversing leukemia stem cell signature
differentiation of TEX cells [10]: induces differentiation
stem cell marker CD34 [10]: loss of stem cell marker CD34
colony formation of M9-ENL1 cells [11]: effective in blocking colony formation
engraftment and leukemia development [12]: strongly decreases engraftment and leukemia development
H2Aub in primary AML samples [13]: decreases H2Aub
colony formation, primary AML samples [13]: inhibits colony formation
stem cell marker CD34, primary AML samples [13]: decrease stem sell marker CD34

Compound: CC(C)c1c(-c2cc(F)cc3[nH]ccc23)[nH]c(C(=O)O)c1-c1cc(OCC(=O)O)ccc1Cl [compound 60]
Kd [2]: < 20 µM

Compound: Cc1ccc2[nH]ccc2c1-c1[nH]c(C(=O)O)c(-c2c(Cl)ccc3[nH]ccc23)c1C(C)C [compound 7]
Kd [2]: < 20 µM

Compound: COc1cc(-c2c(C(=O)O)[nH]c(-c3cc(F)cc4[nH]ccc34)c2C(C)C)c2ccn(CC(=O)O)c2c1 [compound 46]
Kd [2]: < 20 µM

Compound: CC(C)c1c(-c2cccc3[nH]ccc23)c(C(=O)O)n2c1-c1cc(F)cc3ccn(c13)S(=O)(=O)C2 [compound 273]
Kd [2]: < 20 µM

Second part, led by results:

Kd [2]: > 100 µM
Compound: CCc1c(-c2cccc3c2ccn3CCO)[nH]c(C(=O)O)c1-c1ccc(OC)cc1Cl [COMPOUND 103]
differentiation of TEX cells [10]: does not induce differentiation

Kd [2]: > 100 µM
Compound: Cc1cc(-c2cccc3[nH]ccc23)[nH]c1C(=O)O [compound 120]

Kd [2]: < 20 µM
Compound: CCc1c(-c2ccc(C)c3[nH]ccc23)[nH]c(C(=O)O)c1-c1cccc2[nH]ccc12 [compound 22]

Kd [2]: 20 to 50 µM
Compound: CCc1c(-c2cccc3[nH]ccc23)[nH]c(C(=O)O)c1-c1cccc(Cl)c1Cl [compound 84]

Kd [2]: < 20 µM
Compound: COc1ccc(-c2cc3c(-c4c(C(=O)O)[nH]c(-c5cc(F)cc6[nH]ccc56)c4C(C)C)ccnc3[nH]2)cc1 [compound 252]
